Reference: patent US11059815B2, “Synthesis of small molecule histone deacetylase 6 degraders, compounds formed thereby, and pharmaceutical compositions containing them” (Wisconsin Alumni Research Foundation, priority 2018, dated 2021)
Read-outs that look alike come from different tables or passages of the source.

Test system: MM1S cells
Assay: Cell viability assay in MM1S cells
Type: cell-based, human
Conditions: for Maximal Inhibition (%) of growth / IC50: 0.3 nM to 3 μM, nonlinear fit, ± SD; for IC50 / inhibition at 1 µM: Homo sapiens, MM1.S; for IC50: read-out: IC50 of antiproliferation
Procedure: FIG. 14A is a histogram depicting cell viability of MM1S cells treated with compounds at 1 μM for 72 h. FIG. 14B is a graph showing cell viability of MM1S cells treated with compounds at concentrations from 0.3 nM to 3 μM for 72 h. All data were normalized to vehicle (DMSO)-treated group and dot plot represented as mean of relative viability (n=3) with ±SD as error bar. For the curve in FIG. 14B, nonlinear fitting of inhibitor concentration vs. response (three parameters) was generated by GraphPad Prism with R^2 from 0.92 to 0.97. Statistical significance was analyzed by one-way ANOVA for FIG. 14A and two-way ANOVA for FIG. 14B. Not significant (ns) P>0.05, *P≤0.05, **P≤0.01, ***P≤0.001, ****P≤0.0001.
FIG. 18 is a histogram showing that HDAC6 degrader and IMiD inhibited MM1S growth synergistically. MM1S cells were treated for 72 h and cell proliferation was examined by AlarmaBlue-brand cell viability assay (ThermoFisher Scientific, Waltham, Mass., USA). Statistical significance was analyzed by one-way ANOVA. Not significant (ns) P>0.05, *P≤0.05, **P≤0.01, ***P≤0.001, ****P≤0.000
Single treatment or co-treatment was performed as combined therapy (1 μM) for 72 hours in MM1S cells. […] However, the single treatment of 12d improved about 19% (P=0.0017) and 11% (P=0.0213) growth inhibition comparing with the combination sets of 13+15 (1:1) and pomalidomide+Next-A (1:1), respectively. To further confirm the observed enhancement, the anti-proliferation in response to 12d was studied from 0.3 nM to 3 μM. This single treatment was compared with dual treatment of 13 and 15 to rule out the potential complication derived from cell permeability issue. Degrader 12d lowered the bottom line (minimal proliferation) of curve over 20% although its IC50 was […] consequentially.
MM1S cells were harvested and plated with 1×10^5 cells in […] media per well in 96-well plate. After overnight seeding, 25 μL media containing 5× dosing concentration of the compounds or vehicle was added to each well. After 72-hour treatment at 37° C. in a humidified 5% CO2 atmosphere, 12.5 μL 10× resazurin solution (1 mg/mL) was added to each well. Then cells were incubated at 37° C. overnight. The optical density was read at 570 nm and 600 nm by plate reader.
The relative viability (RV) was measured by followed formula: […]
The single treatment of HDAC6 inhibitor, HDAC6 degrader 3j, IMiD (pomalidomide), and the combination of the two was compared in MM1S cells to evaluate cell vialility. […] Pomalidomide suppressed ˜50% proliferation at either 1 μM or 100 nM concentration. […] The results confirmed that HDAC6 degradation and IKZF degradation work synergistically to inhibit the growth of multiple myeloma cells.

`CCCCN(Cc1ccc(C(=O)NO)cc1)C(=O)Nc1ccc(OCCCCCn2cc(CNc3cccc4c3C(=O)N(C3CCC(=O)NC3=O)C4=O)nn2)cc1` (stereo not shown) [Compound 12d, 4-((1-butyl-3-(4-((5-(4-(((2-(2,6-dioxopiperidin-3-yl)-1,3-dioxoisoindolin-4-yl)amino)methyl)-1H-1,2,3-triazol-1-yl)pentyl)oxy)phenyl)ureido)methyl)-N-hydroxybenzamide] was tested, and the “Maximal Inhibition (%) of growth” value (72 h) was 63.15 ± 1.82%, the “degrader concentration at which HDAC6 degradation and IKZF degradation had synergistic effects” value (72 h) was > 300 nM and the “lowering of bottom line (minimal proliferation) of curve” value (72 h, versus 13 and 15 dual treatment) was “over 20%”. The IC50 (72 h) was 74.9 ± 11.3 nM, the inhibition at 1 µM (1 μM, 72 h, P=0.0017, read-out: improvement of growth inhibition compared with 13+15 (1:1)) was ~19% and the inhibition at 1 µM (1 μM, 72 h, P=0.0213, read-out: improvement of growth inhibition compared with pomalidomide+Next-A (1:1)) was ~11%.

`CCCCN(Cc1ccc(C(=O)NO)cc1)C(=O)Nc1ccc(OCCCCCn2cc(CNc3cccc4c3C(=O)N(C3CCC(=O)NC3=O)C4=O)nn2)cc1` (stereo not shown) [Compound 2] was tested, and the “anti-proliferation effect of degrader alone” value was “significant anti-proliferation effect”.

With `CCCCN(Cc1ccc(C(=O)NO)cc1)C(=O)Nc1ccc(OCCCCCn2cc(CNc3cccc4c3C(=O)N(C3CCC(=O)N(C)C3=O)C4=O)nn2)cc1` (stereo not shown) [Compound 15, 4-((1-butyl-3-(4-((5-(4-(((2-(1-methyl-2,6-dioxopiperidin-3-yl)-1,3-dioxoisoindolin-4-yl)amino)methyl)-1H-1,2,3-triazol-1-yl)pentyl)oxy)phenyl)ureido)methyl)-N-hydroxybenzamide] the “effect on cell growth” value (1 μM, 72 h) was “totally inactive”.

With `CCCCN(Cc1ccc(C(=O)NO)cc1)C(=O)Nc1ccccc1` [Next-A, 4-[[butyl[(phenylamino)carbonyl]amino]methyl]-N-hydroxy-benzamide, reference compound] the “anti-proliferation effect, single treatment” value (1 μM, 72 h) was “did not show any anti-proliferation effect” and the “effect on cell growth” value (1 μM, 72 h) was “minor effects”.

In the case of `Nc1cccc2c1C(=O)N(C1CCC(=O)NC1=O)C2=O` (stereo not shown) [Pomalidomide, reference compound], the suppression of proliferation (either 1 μM or 100 nM, 72 h) is reported as ~50%.

With `CCCCN(Cc1ccc(C(=O)OC)cc1)C(=O)Nc1ccc(OCCCCCn2cc(CNc3cccc4c3C(=O)N(C3CCC(=O)NC3=O)C4=O)nn2)cc1` (stereo not shown) [Compound 13, Methyl 4-((1-butyl-3-(4-((5-(4-(((2-(2,6-dioxopiperidin-3-yl)-1,3-dioxoisoindolin-4-yl)amino)methyl)-1H-1,2,3-triazol-1-yl)pentyl)oxy)phenyl)ureido)methyl)benzoate] the “Maximal Inhibition (%) of growth” value (72 h) was 43.96 ± 1.16% and the IC50 (72 h) was 17.7 ± 2.84 nM.
